Where two headings read alike, the source gives them in different places.
Columns and labels:
[1] = target: human CMV DNA polymerase UL54 (Human cytomegalovirus (strain AD169) (HHV-5) (Human herpesvirus 5), UniProt P08546); test: biochemical; details: 100 pM CMV polymerase, 60 minutes at room temperature; read-out: CMV-polymerase Biochemical IC50
[2] = target: human HSV DNA polymerase UL30 (Human herpesvirus 1 (strain 17) (HHV-1) (Human herpes simplex virus 1), UniProt P04293); test: biochemical; details: 625 pM HSV polymerase, 20 minutes at room temperature; read-out: HSV-polymerase Biochemical IC50
VZV Ellen strain = test: VZV qPCR assay; details: Human alphaherpesvirus 3, MRC5, 48 h, read-out: Cellular activity against VZV (EC50)
[3] = test system: EBV (SNU-719 gastric carcinoma cell line latently infected); test: EBV qPCR assay; details: human gammaherpesvirus 4, 72 h, read-out: Cellular activity against EBV (EC50)
[4] = test system: KOS strain of HSV-1 virus; test: HSV-1 qPCR assay; details: read-out: Cellular activity against HSV-1 (EC50)
[5] = test system: Luciferase-encoding HCMV (AD169 strain); test: microbe, parasite or virus in culture; format: cell-based
[6] = test system: HCMV-Rluc virus (AD169 pp28-hRluc rUL131); test: CMV Luciferase Assay of Compounds 243-262 in ARPE-19 cells; format: cell-based; details: Human betaherpesvirus 5, AD169, ARPE-19, 72 h, read-out: CMV-Luc Cellular EC50 in ARPE-19
Method: The assay uses a Luciferase-encoding HCMV. Luciferase is expressed under the control of a late viral gene (pp28) promoter in the AD169 strain, so that expression of the reporter is dependent on viral DNA replication. Compounds that affect any stage from viral entry to DNA replication result in a change in luciferase levels.
Compounds 243-262 were tested in a luminescence assay as follows.
ARPE-19 cells were maintained in growth medium (DMEM/F12 Glutamax+10 fetal bovine serum (FBS)+PenStrep) and, before reaching full confluence, were transferred to a centrifuge tube and spun for 5 minutes at 1000 rpm. The cells were resuspended in assay medium (DMEM/F12 Glutamax+2% FBS+PenStrep) and counted. Cell density was adjusted to one million cells per milliliter and infected with HCMV-Rluc virus (AD169 pp28-hRluc rUL131; MOI 0.6) in a 50 ml conical tube for 2 hours while shaking. After dilution of the infectious suspension ten-fold (to 100,000 cells per milliliter), 8000 cells are directly plated in 384-well plates pre-spotted with the compound to be tested. The cells were incubated for 72 hours at 37 degrees Celsius. Cells were then placed at room temperature and allowed to equilibrate for 20 minutes before addition of the Renilla-Glo (Promega) reagent. After a 10-minute incubation at room temperature, luminescence was measured on a microplate reader.

| SMILES | IC50 [1] [nM] | IC50 [2] [nM] | EC50 (VZV Ellen strain) [nM] | EC50 [3] [nM] | EC50 ([4]; Human alphaherpesvirus 1, 24 h) [nM] | EC50 ([5]; read-out: CMV-Luc Cellular EC50, NN-NHDF cells, MOI of 1, 72 hrs) [nM] | EC50 ([5]; read-out: Cellular activity against CMV (EC50), Table 18, CMV) [nM] | EC50 ([4]; NN-NHDF cells, MOI of 0.01, 24 hrs, qPCR) [nM] | EC50 [6] [nM] |
| --- | --- | --- | --- | --- | --- | --- | --- | --- | --- |
| Cn1nc(C(=O)NCc2ccc(C#N)cc2)c2c1C(=O)N(CC1(S(=O)(=O)C(C)(C)C(O)CN)CC1)CC2 (single isomer, unassigned) [Example 199] | 1 | 28 | 127 | 11 | 30 | – | – | – | – |
| Cn1nc(C(=O)NCc2ccc(Cl)cc2)c2c1C(=O)N(CC1(S(=O)(=O)C(C)(C)C(O)CN)CC1)CC2 (single isomer, unassigned) [Example 201] | 1 | 15 | – | – | – | 6 | 6 | 18 | – |
| Cn1nc(C(=O)NCc2ccc(C#N)cc2)c2c1C(=O)N(CC1(S(=O)(=O)C(C)(C)C(O)CO)CC1)CC2 (centres unmarked) [Example 252, N-(4-cyanobenzyl)-6-((1-((3,4-dihydroxy-2-methylbutan-2-yl)sulfonyl)cyclopropyl)methyl)-1-methyl-7-oxo-4,5,6,7-tetrahydro-1H-pyrazolo[3,4-c]pyridine-3-carboxamide] | – | – | – | – | – | – | – | – | 21.9 |

— patent publication US20250353820A1, “ANTIVIRAL PYRAZOLOPYRIDINONE COMPOUNDS” (Novartis AG, priority 2019, published 2025)
